Test results taken from PubChem BioAssay AID2060899 (Molecular Pharmacology Branch, DTP, NCI, 2025).

System: 565726-208-R1-J5-PDC complex spheroids, growth inhibition
Assay: Anticancer human tumor 565726-208-R1-J5-PDC patient-derived pancreatic adenocarcinoma cell line growth inhibition [RAS]
Settings: for IC50: curve of first compound; for viability, T/C: stronger effect = lower value
How it was run: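 Agents were tested in combination matrices in half-log decrements from a top concentration at or near clinical Cmax (10 microM if undetermined). Targets were multi-cell spheroids of tumour lines plus HUVEC and MSC stromal cells.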

[1] = second compound 0.000949 µM, first compound 0.0316 µM
[2] = second compound 0.000949 µM, first compound 0.1 µM
[3] = second compound 0.000949 µM, first compound 0.316 µM
[4] = second compound 0.000949 µM, first compound 1 µM
[5] = second compound 0.003 µM, first compound 0.0316 µM
[6] = second compound 0.003 µM, first compound 0.1 µM
[7] = second compound 0.003 µM, first compound 0.316 µM
[8] = second compound 0.003 µM, first compound 1 µM
[9] = second compound 0.00949 µM, first compound 0.0316 µM
[10] = second compound 0.00949 µM, first compound 0.1 µM
[11] = second compound 0.00949 µM, first compound 0.316 µM
[12] = second compound 0.00949 µM, first compound 1 µM
[13] = second compound 0.03 µM, first compound 0.0316 µM
[14] = second compound 0.03 µM, first compound 0.1 µM
[15] = second compound 0.03 µM, first compound 0.316 µM
[16] = second compound 0.03 µM, first compound 1 µM
[17] = second compound 0.0949 µM, first compound 0.0316 µM
[18] = second compound 0.0949 µM, first compound 0.1 µM
[19] = second compound 0.0949 µM, first compound 0.316 µM
[20] = second compound 0.0949 µM, first compound 1 µM
[21] = second compound 0.3 µM, first compound 0.0316 µM
[22] = second compound 0.3 µM, first compound 0.1 µM
[23] = second compound 0.3 µM, first compound 0.316 µM
[24] = second compound 0.3 µM, first compound 1 µM
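Further: spheroids exposed to compounds for seven days before readout.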
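Wherever viability, T/C is given: 100% = DMSO vehicle control viability.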

CC(=O)OC12COC1CC(O)C1(C)C(=O)C(O)C3=C(C)C(OC(=O)C(O)C(NC(=O)OC(C)(C)C)c4ccccc4)CC(O)(C(OC(=O)c4ccccc4)C21)C3(C)C (stereo unspecified) + CCn1c(-c2cccnc2C(C)OC)c2c3cc(ccc31)N1CCOC(CC(NC(=O)C(C(C)C)N(C)C(=O)C3(F)CCN(C(=O)C#CC(C)(C)N(C)C)CC3)C(=O)N3CCCC(N3)C(=O)OCC(C)(C)C2)C1 was tested, and the IC50 (second compound 0.000949 µM) was < 31.6 nM, the IC50 (second compound 0.003 µM) was < 31.6 nM and the IC50 (second compound 0.00949 µM) was < 31.6 nM. For the same compound, the IC50 (second compound 0.03 µM) was < 31.6 nM, the IC50 (second compound 0.0949 µM) was < 31.6 nM and the IC50 (second compound 0.3 µM) was < 31.6 nM. It also gave a viability, T/C [1] of 15.9%, a viability, T/C [2] of 14.2% and a viability, T/C [3] of 15.5%. The viability, T/C [4] was 16.5%, the viability, T/C (second compound 0.000949 µM, first compound 3.16 µM) was 19.8% and the viability, T/C (second compound 0.000949 µM, first compound 10 µM) was 21.5%. For the same compound, the viability, T/C [5] was 17.4%, the viability, T/C [6] was 16.5% and the viability, T/C [7] was 16.2%. For the same compound, the viability, T/C [8] was 14.6%, the viability, T/C (second compound 0.003 µM, first compound 3.16 µM) was 19.8% and the viability, T/C (second compound 0.003 µM, first compound 10 µM) was 22.8%. For the same compound, the viability, T/C [9] was 17.3%, the viability, T/C [10] was 15.3% and the viability, T/C [11] was 15.9%. It also gave a viability, T/C [12] of 15.7%, a viability, T/C (second compound 0.00949 µM, first compound 3.16 µM) of 20.1% and a viability, T/C (second compound 0.00949 µM, first compound 10 µM) of 22.8%. The viability, T/C [13] was 16.3%, the viability, T/C [14] was 16.2% and the viability, T/C [15] was 15%. It also gave a viability, T/C [16] of 17%, a viability, T/C (second compound 0.03 µM, first compound 3.16 µM) of 21.6% and a viability, T/C (second compound 0.03 µM, first compound 10 µM) of 25.4%. The viability, T/C [17] was 15.3%, the viability, T/C [18] was 14.8% and the viability, T/C [19] was 13.2%. It also gave a viability, T/C [20] of 15.3%, a viability, T/C (second compound 0.0949 µM, first compound 3.16 µM) of 20.2% and a viability, T/C (second compound 0.0949 µM, first compound 10 µM) of 24.3%. The viability, T/C [21] was 14.9%, the viability, T/C [22] was 15.8% and the viability, T/C [23] was 14.4%. The viability, T/C [24] was 13.9%, the viability, T/C (second compound 0.3 µM, first compound 3.16 µM) was 17.6% and the viability, T/C (second compound 0.3 µM, first compound 10 µM) was 26.2%.

CCc1c2c(nc3ccc(O)cc13)-c1cc3c(c(=O)n1C2)COC(=O)[C@]3(O)CC + CCn1c(-c2cccnc2C(C)OC)c2c3cc(ccc31)N1CCOC(CC(NC(=O)C(C(C)C)N(C)C(=O)C3(F)CCN(C(=O)C#CC(C)(C)N(C)C)CC3)C(=O)N3CCCC(N3)C(=O)OCC(C)(C)C2)C1 was tested, and the IC50 (second compound 0.000949 µM) was 2.34 nM, the IC50 (second compound 0.003 µM) was 2.11 nM and the IC50 (second compound 0.00949 µM) was 2.33 nM. It also gave an IC50 (second compound 0.03 µM) of 2.06 nM, an IC50 (second compound 0.0949 µM) of 1.98 nM and an IC50 (second compound 0.3 µM) of 1.64 nM. For the same compound, the viability, T/C (second compound 0.000949 µM, first compound 0.000949 µM) was 79.2%, the viability, T/C (second compound 0.000949 µM, first compound 0.003 µM) was 39.5% and the viability, T/C (second compound 0.000949 µM, first compound 0.00949 µM) was 25.5%. For the same compound, the viability, T/C (second compound 0.000949 µM, first compound 0.03 µM) was 14.4%, the viability, T/C (second compound 0.000949 µM, first compound 0.0949 µM) was 8.88% and the viability, T/C (second compound 0.000949 µM, first compound 0.3 µM) was 4.44%. It also gave a viability, T/C (second compound 0.003 µM, first compound 0.000949 µM) of 80.3%, a viability, T/C (second compound 0.003 µM, first compound 0.003 µM) of 33.2% and a viability, T/C (second compound 0.003 µM, first compound 0.00949 µM) of 23.6%. The viability, T/C (second compound 0.003 µM, first compound 0.03 µM) was 15.5%, the viability, T/C (second compound 0.003 µM, first compound 0.0949 µM) was 10.2% and the viability, T/C (second compound 0.003 µM, first compound 0.3 µM) was 5.03%. The viability, T/C (second compound 0.00949 µM, first compound 0.000949 µM) was 79%, the viability, T/C (second compound 0.00949 µM, first compound 0.003 µM) was 38.5% and the viability, T/C (second compound 0.00949 µM, first compound 0.00949 µM) was 27%. The viability, T/C (second compound 0.00949 µM, first compound 0.03 µM) was 13.2%, the viability, T/C (second compound 0.00949 µM, first compound 0.0949 µM) was 8.85% and the viability, T/C (second compound 0.00949 µM, first compound 0.3 µM) was 4.19%. For the same compound, the viability, T/C (second compound 0.03 µM, first compound 0.000949 µM) was 75.5%, the viability, T/C (second compound 0.03 µM, first compound 0.003 µM) was 34.5% and the viability, T/C (second compound 0.03 µM, first compound 0.00949 µM) was 23.8%. It also gave a viability, T/C (second compound 0.03 µM, first compound 0.03 µM) of 13.5%, a viability, T/C (second compound 0.03 µM, first compound 0.0949 µM) of 8.23% and a viability, T/C (second compound 0.03 µM, first compound 0.3 µM) of 3.69%. The viability, T/C (second compound 0.0949 µM, first compound 0.000949 µM) was 73.3%, the viability, T/C (second compound 0.0949 µM, first compound 0.003 µM) was 35.2% and the viability, T/C (second compound 0.0949 µM, first compound 0.00949 µM) was 20.5%. The viability, T/C (second compound 0.0949 µM, first compound 0.03 µM) was 11.1%, the viability, T/C (second compound 0.0949 µM, first compound 0.0949 µM) was 6% and the viability, T/C (second compound 0.0949 µM, first compound 0.3 µM) was 2.81%. For the same compound, the viability, T/C (second compound 0.3 µM, first compound 0.000949 µM) was 67.1%, the viability, T/C (second compound 0.3 µM, first compound 0.003 µM) was 30% and the viability, T/C (second compound 0.3 µM, first compound 0.00949 µM) was 16.7%. The viability, T/C (second compound 0.3 µM, first compound 0.03 µM) was 8.71%, the viability, T/C (second compound 0.3 µM, first compound 0.0949 µM) was 5.1% and the viability, T/C (second compound 0.3 µM, first compound 0.3 µM) was 2.77%.

In the case of Nc1ccn(C2OC(CO)C(O)C2(F)F)c(=O)n1 (stereo unspecified) + CCn1c(-c2cccnc2C(C)OC)c2c3cc(ccc31)N1CCOC(CC(NC(=O)C(C(C)C)N(C)C(=O)C3(F)CCN(C(=O)C#CC(C)(C)N(C)C)CC3)C(=O)N3CCCC(N3)C(=O)OCC(C)(C)C2)C1, the IC50 (second compound 0.000949 µM) is reported as 82.4 nM, the IC50 (second compound 0.003 µM) is reported as 77.2 nM and the IC50 (second compound 0.00949 µM) is reported as 72.3 nM. The IC50 (second compound 0.03 µM) was 70.4 nM, the IC50 (second compound 0.0949 µM) was 77.2 nM and the IC50 (second compound 0.3 µM) was 44 nM. It also gave a viability, T/C (second compound 0.000949 µM, first compound 0.00316 µM) of 107%, a viability, T/C (second compound 0.000949 µM, first compound 0.01 µM) of 91.8% and a viability, T/C [1] of 68.1%. It also gave a viability, T/C [2] of 47%, a viability, T/C [3] of 32.3% and a viability, T/C [4] of 27.9%. For the same compound, the viability, T/C (second compound 0.003 µM, first compound 0.00316 µM) was 110%, the viability, T/C (second compound 0.003 µM, first compound 0.01 µM) was 88.6% and the viability, T/C [5] was 69.2%. For the same compound, the viability, T/C [6] was 40.9%, the viability, T/C [7] was 38.6% and the viability, T/C [8] was 29.6%. It also gave a viability, T/C (second compound 0.00949 µM, first compound 0.00316 µM) of 97.5%, a viability, T/C (second compound 0.00949 µM, first compound 0.01 µM) of 91.2% and a viability, T/C [9] of 66%. The viability, T/C [10] was 42.5%, the viability, T/C [11] was 36.1% and the viability, T/C [12] was 26.2%. The viability, T/C (second compound 0.03 µM, first compound 0.00316 µM) was 90.1%, the viability, T/C (second compound 0.03 µM, first compound 0.01 µM) was 90.2% and the viability, T/C [13] was 62.7%. It also gave a viability, T/C [14] of 43.3%, a viability, T/C [15] of 33.6% and a viability, T/C [16] of 22.8%. For the same compound, the viability, T/C (second compound 0.0949 µM, first compound 0.00316 µM) was 85.1%, the viability, T/C (second compound 0.0949 µM, first compound 0.01 µM) was 88.4% and the viability, T/C [17] was 71.9%. For the same compound, the viability, T/C [18] was 43%, the viability, T/C [19] was 31.4% and the viability, T/C [20] was 24.4%. The viability, T/C (second compound 0.3 µM, first compound 0.00316 µM) was 81.8%, the viability, T/C (second compound 0.3 µM, first compound 0.01 µM) was 75.4% and the viability, T/C [21] was 52.6%. For the same compound, the viability, T/C [22] was 37.6%, the viability, T/C [23] was 30.8% and the viability, T/C [24] was 21.2%.
